For one assay, the system named is IL-17 secretion in PBMC. The assay is described as follows: PBMC IL-17 secretion ELISA. Format: cell-based. The settings on record: anti-CD3/anti-CD28/IL-23 stimulated human PBMC, mean ± SEM, read-out: hPBMC IL-17 ELISA. As to the method:
Following the incubation period the plates are spun at 200×g for five minutes. Supernatants are diluted 1:1 with equal volume 1% BSA/PBS and tested for IL-17 with a human IL-17 ELISA kit from R&D system (catalog #D317E) according to the protocol provided with the kit with one exception—the colorimetric substrate OPD (o-phenylenediamine dihydrochloride, Sigma Cat #P6912) is used instead of the substrate supplied in the kit. Absorbance at 492 nm is measured with the Envision multi-label plate reader. A492 values are converted to concentration of IL-17 based on the IL-17 standard curve as shown below:
pg/mL IL-17=EC50*[[(Top−Bottom)/(A492−Bottom)]−1](1/−Hill). IC50's for inhibition of IL-17 secretion is calculated based on converted values using a standard 4-parameter fit with maximum inhibition determined from the average values of wells with no added stimulants nor compounds and minimum inhibition from the average values of wells with stimulants alone and no added compound.

Assay [1] deals with GPI induced arthritis in DBA/1 mice. The assay is described as follows: Glucose-6-phosphate isomerase (GPI) induced arthritis model. The note with it: male DBA/1 mice, 1000 mg/Kg orally once daily. Format: in vivo, mouse. As to the method: The GPI induced arthritis model is adapted from K. Iwanami et al Arthritis Rheumatism 58, 754-763, 2008 and D. Schubert et al. J Immunology 172, 4503-4509, 2004. Mice (8-9 week old male DBA/1 mice) (Harlan) are randomly assigned into treatment groups based on body weights collected on the day of immunization (day 0). On the day of immunization (day 0), a 1:1 (v:v) mixture of recombinant human GPI (diluted to 4 mg/mL in PBS, Gibco) and complete Freund's adjuvant (CFA, Sigma) is mixed on a high speed homogenizer (Omni) for 40 minutes in a cold room. A final concentration of 2 mg/mL GPI is achieved in the emulsion. Mice are injected at the base of the tail (2 sites of injection, subcutaneously, 100 μL each site) with the GPI emulsion. Test compounds are dosed orally starting on the same day as immunization (day 0). Starting on day 0, each paw is scored for severity of joint swelling based on a 0 to 3 scoring system (See K. Iwanami et al Arthritis Rheumatism 58, 754-763, 2008. The clinical score represents the total score of all 4 paws (maximum score=12). Clinical scores are assessed on days 0, 2, 4, 7, 8, 9, 10, 11, 12, 14, 16, 18, and 21.
The AUC is calculated by a trapezoid method for clinical score over time from the day of immunization (day 0) to day 21. Test p-values were derived from Student's t-test.

Each structure is given as a SMILES string. Where two headings read alike, the source gives them in different places.

On to `CCS(=O)(=O)c1ccc(CNC(=O)c2cc3c(s2)C2(CCN(C(C)c4cnc(C(F)(F)F)nc4)CC2)O[C@H](C)C3)nc1` (single isomer, unassigned; isomer 1) [Example 4, (5R′)—N-{[5-(Ethylsulfonyl)pyridine-2-yl]methyl}-5′-methyl-1-{1-[2-(trifluoromethyl)pyrimidin-5-yl]ethyl}-4′,5′-dihydrospiro[piperidine-4,7′thieno[2,3-C]pyran]-2′-carboxamide isomer 1], for which the IC50 in the assay on IL-17 secretion in PBMC (48 hours) was determined as 106 nM.
Regarding `CCS(=O)(=O)c1ccc(CNC(=O)c2cc3c(s2)C2(CCN(C(C)c4cnc(C(F)(F)F)nc4)CC2)O[C@H](C)C3)nc1` (single isomer, unassigned; isomer 2) [Example 5, (5R′)—N-{[5-(Ethylsulfonyl)pyridine-2-yl]methyl}-5′-methyl-1-{1-[2-(trifluoromethyl)pyrimidin-5-yl]ethyl}-4′,5′-dihydrospiro[piperidine-4,7′thieno[2,3-C]pyran]-2′-carboxamide isomer 2], the IC50 with IL-17 secretion in PBMC (48 hours) was found to be 30.5 ± 29.3 nM.
Regarding `CCS(=O)(=O)c1ccc(CNC(=O)c2cc3c(s2)C2(CCN(C(C)c4cnc(C(F)(F)F)nc4)CC2)OC(C)C3)nc1` (centres unmarked) [Example 1, N-{[5-(Ethylsulfonyl)pyridine-2-yl]methyl}-5′-methyl-1-{1-[2-(trifluoromethyl)pyrimidin-5-yl]ethyl}-4′,5′-dihydrospiro[piperidine-4,7′thieno[2,3-C]pyran]-2′-carboxamide], the IC50 with IL-17 secretion in PBMC (Homo sapiens, PBMC, 48 h) is 77.3 nM.
On the same count and under the same terms, next, `CCS(=O)(=O)c1ccc(CNC(=O)c2cc3c(s2)C2(CCN([C@@H](C)c4cnc(C(F)(F)F)nc4)CC2)O[C@@H](C)C3)nc1` [Example 2, (5S′)—N-{[5-(Ethylsulfonyl)pyridine-2-yl]methyl}-5′-methyl-1-{(1S)-1-[2-(trifluoromethyl)pyrimidin-5-yl]ethyl}-4′,5′-dihydrospiro[piperidine-4,7′thieno[2,3-C]pyran]-2′-carboxamide]: 33.7 ± 33.1 nM.
Regarding `CCS(=O)(=O)c1ccc(CNC(=O)c2cc3c(s2)C2(CCN([C@H](C)c4cnc(C(F)(F)F)nc4)CC2)O[C@@H](C)C3)nc1` [Example 3, (5S′)—N-{[5-(Ethylsulfonyl)pyridine-2-yl]methyl}-5′-methyl-1-{(1R)-1-[2-(trifluoromethyl)pyrimidin-5-yl]ethyl}-4′,5′-dihydrospiro[piperidine-4,7′thieno[2,3-C]pyran]-2′-carboxamide], the IC50 in the assay on IL-17 secretion in PBMC (Homo sapiens, PBMC, 48 h) was determined as 20 ± 12.6 nM. Moreover, the “severity of paw swelling and mean clinical scores” value in assay [1] (compared to the vehicle group) is “reduces severity of paw swelling and maintains lower mean clinical scores”. Besides, the “reduction in clinical score AUC” value in assay [1] (day 0 to day 21, compared to the vehicle group) is reported as 75%. Moreover, in assay [1] (day 0 to day 21, n=8/group), the “Clinical Score AUC (mean ± SEM)” value was 22.20 ± 8.68.

For the origin of these results see US9598431B1, “Compounds useful for inhibiting ROR-gamma-t” (Eli Lilly and Company, priority 2015, dated 2017).
